Assays:
[1] = test system: endothelial monolayer of HRECs; assay: Analysis of cell permeability (FITC-dextran, Transwell); type: cell-based, human; conditions: HREC monolayer, 10 ng/mL VEGF 90 min with 20 μM midazolam, 5 μM BAPTA-AM, 1 mM NAC, 0.5 μM Trolox, 50 μM cystamine or 20 μM MDC; 40 kDa FITC-dextran 60 min (FIG. 7)
Method: The HRECs were cultured (e.g. about 5 days) until the cell confluence thereof reached an appropriate level on gelatin-coated 0.4 μm polycarbonate membranes of Transwell Permeable Supports (Costar, Corning, N.Y.), followed by the respective treatments below and culture for 30 min. Here, treatment with 10 ng/mL VEGF was performed for 90 min. Thereafter, the HRECs were treated with 1 mg/mL 40 kDa FITC-dextran (Sigma-Aldrich), incubated for 60 min, after which the amount of FITC-dextran that was diffused into the lower chamber through the endothelial monolayer of HERCs was measured using a microplate spectrofluorometer (Molecular Devices, Sunnyvale, Calif.).

β-catenin = assay: Analysis of adherens junction (β-catenin staining); type: cell-based, human; conditions: HRECs, 10 ng/mL VEGF 90 min with 20 μM midazolam, 5 μM BAPTA-AM, 1 mM NAC, 0.5 μM Trolox, 50 μM cystamine or 20 μM MDC (FIGS. 8, 9)
Method: Purchased from Applied Cell Biology Research Institute (Cell Systems, Kirkland, Wash.), human retinal endothelial cells (HRECs) were cultured in an M19 medium, containing 20% FBS, 3 ng/mL bFGF, 5 U/mL heparin, 100 U/mL penicillin and […], in a 2% gelatin-coated plate.
Before the following Test Examples 2 to 7, the HRECs were cultured for 6 hr in a medium containing 1% FBS and an antibiotic agent, thus preparing HRECs of Test Example 1.
The HRECs of Test Example 1 were subjected to the respective treatments below and cultured for 30 min. Here, treatment with 10 ng/mL VEGF was performed for 90 min. Thereafter, the HRECs were treated with 1 mM 5-(biotinamido)pentylamine, incubated for 1 hr, fixed with 3.7% formaldehyde, treated with 0.2% triton X-100, treated with a blocking solution containing 138 mM NaCl, 0.1% Tween 20 and 2% BSA dissolved in a 20 mM Tris (pH 7.6) buffer, incubated for 30 min, incubated with a monoclonal β-catenin antibody (1:200; Santa Cruz Biotechnology) for 12 hr or more, incubated with a FITC-conjugated goat anti-mouse antibody, and measured using confocal microscopy. Some (the following i), ii), iii), iv)) of the results are shown in FIG. 8, and the β-catenin concentrations in the portions represented by the dotted lines in FIG. 8 are shown in FIG. 9. With reference to FIG. 9, 10 randomly selected cells were measured to determine the fluorescence intensity of single cells and thus quantify β-catenin.
β-catenin, which is a protein that mediates adherens junction like VE-cadherin, was analyzed to evaluate adherens junction.

kidneys of diabetic mice = assay: Hyperglycemia-induced renal vascular leakage in diabetic mice (FITC-dextran); type: in vivo, C57BL/6 mice; conditions: 10 mg/kg midazolam intraperitoneal daily for 2 days (FIG. 20)
Method: FIGS. 20A and 20B show the preventive effects of midazolam against hyperglycemia-induced renal vascular leakage in diabetic mice. Six-week-old male C57BL/6 mice were administered with streptozotocin (150 mg/kg body weight) to give diabetic mouse models. Two weeks after streptozotocin injection, diabetic mice were administered 10 mg/kg midazolam by intraperitoneal injection daily for 2 days, and vascular leakage was investigated. The body weight of mice were measure in normal (19.9±0.3 g), diabetic (17.7±0.3 g), and midazolam supplemented diabetic mice (17.7±0.3 g). Blood glucose levels were also monitored in normal (123.5±6.5 mg/dL), diabetic (505.0±89.0 mg/dL), and midazolam supplemented diabetic mice (500.3±63.3 mg/dL). The mice were anesthetized with 3% isoflurane, and 1.25 mg of FITC-dextran was injected into the right ventricle of each mouse and allowed to circulate for 5 min. The kidneys were dissected, fixed, and embedded in OCT compound. Cryosections of kidneys were stained with nuclear counterstaining with DAPI. Representative images of vascular leakage in kidneys are shown in additional FIG. 20A. Scale bars, 100 μm. The results of vascular leakage quantitatively analyzed by measuring the fluorescence intensity of FITC-dextran in the kidneys are shown in additional FIG. 20B. (n=4 for normal and diabetic, n=6 for diabetic+Midazolam).

[2] = test system: retinal vessels of diabetic mice; assay: Fluorescein angiography for mouse model (retinal vascular leakage); type: in vivo, C57BL/6 mice; conditions: intravitreal 2 μL of 2 mM midazolam, 2 μM cystamine or 500 mM MDC (FIGS. 16, 17)
VEGF = assay: VEGF-induced vascular leakage in mouse ear (evans blue dye); type: in vivo, C57BL/6 mice; conditions: 24 hr before evans blue dye, 30 ng VEGF intradermally (FIG. 23)
Method: Six-week-old male C57BL/6 mice were administered 5 or 10 mg/kg midazolam by intraperitoneal injection. After 24 hr, mice were intravenously injected with 45 mg/kg evans blue dye. After 30 min circulation, 10 μl VEGF solution (30 ng) was injected intradermally into the dorsal part of ears. Representative images of vascular leakage in ears are shown in additional FIG. 23 (n=2/group).

[3] = test system: human retinal endothelial cells (HRECs); assay: Identification of receptor of midazolam through ROS concentration analysis; type: cell-based
Method: With reference to FIG. 10A, the HRECs of Test Example 1 were subjected to the respective treatments below, cultured for 10 min, treated with 10 μM H2DCFDA, stained for 10 min in a phenol-red-free low-serum medium, and measured using confocal microscopy to thus determine the fluorescence intensity of single cells.
As will be described below, flumazenil was used as a GABAA receptor antagonist and PK11195 was used as a TSOP receptor antagonist.
With reference to FIG. 10B, the HRECs of Test Example 1 were treated with 0 μM, 0.01 μM, 0.1 μM, 1 μM, 10 μM, 20 μM, and 50 μM flumazenil and 0 μM, 0.01 μM, 0.1 μM, 1 μM, 3 μM, 10 μM, and 30 μM PK11195, cultured for 1 hr, treated with 20 μM midazolam, cultured for 30 min, treated with 10 ng/ml VEGF, incubated for 10 min, treated with 10 μM H2DCFDA, stained for 10 min in a phenol-red-free low-serum medium, and then measured using confocal microscopy to thus determine the fluorescence intensity of single cells.

Cc1ncc2n1-c1ccc(Cl)cc1C(c1ccccc1F)=NC2 [midazolam]
FITC-dextran diffused into lower chamber (cell permeability) / adherens junction disruption due to VEGF [1]: prevented the adherens junction disruption due to VEGF and thus FITC-dextran was not diffused | β-catenin concentration / adherens junction disruption due to VEGF (β-catenin): exhibited the effect of preventing the adherens junction disruption due to VEGF | renal vascular leakage (FITC-dextran extravasation) (kidneys of diabetic mice): blocked by midazolam administration | retinal vascular leakage compared to normal mice [2]: vascular leakage was prevented | VEGF-induced vascular leakage in mouse ear (VEGF; 5 mg/kg midazolam intraperitoneal): not at 5 mg/kg | VEGF-induced vascular leakage in mouse ear (VEGF; 10 mg/kg midazolam intraperitoneal): suppressed | ROS concentration (VEGF-induced) compared to control ([3]; 20 μM midazolam 10 min then 10 ng/ml VEGF, no washing (FIG. 10A)): no significant ROS concentration increase was observed | ROS concentration (VEGF-induced, after washing) ([3]; 20 μM midazolam 30 min, washing with serum-free medium, then 10 ng/ml VEGF (FIG. 10A)): ROS concentration was increased

From patent US11020405B2, “Method for prevention or treatment of diabetic complications” (KANGWON NATIONAL UNIVERSITY UNIVERSITY-INDUSTRY COOPERATION …, priority 2017, dated 2021)
